Source: ChEMBL document CHEMBL6087448, “Eradication of Therapy-Resistant Cancer Stem Cells by Novel Telmisartan Derivatives” (J Med Chem, 2025)
Calls of active or inactive are those of the source. No cut-off for these calls is given here.

Legend:
K-562R [1] = experiment: Sensitization of imatinib-induced cytotoxicity against human K562-r cells assessed as cell viability at 10 uM measured after 72 hrs by MTT assay relative to control; type: functional; conditions: read-out: Activity
K-562R [2] = experiment: Inhibition of side population phenotype in human K562-r cells at 10 uM incubated for 90 mins by DCV staining based flow cytometric analysis relative to control; type: functional
K-562R [3] = experiment: Sensitization of imatinib-induced cytotoxicity against human K562-r cells assessed as metabolic activity at 8 uM measured after 72 hrs by MTT assay relative to control; type: functional
COS-7 = experiment: Cytotoxicity against African green monkey COS-7 cells assessed as reduction in metabolic activity at 10 uM incubated for 72 hrs by MTT assay; type: toxicity, cell-based; conditions: chlorocebus aethiops, cos-7, 72 h
K-562R [4] = experiment: Sensitization of imatinib-induced cytotoxicity against human K562-r cells assessed as reduction in metabolic activity at 10 uM measured after 72 hrs by MTT assay; type: functional, cell-based
K562 = experiment: Cytotoxicity against human K562 cells assessed as reduction in metabolic activity at 10 uM measured after 72 hrs by MTT assay; type: functional, cell-based
K-562R [5] = experiment: Sensitization of imatinib-induced cytotoxicity against human K562-r cells assessed as reduction in metabolic activity at 0.5 to 6 uM measured after 72 hrs by MTT assay; type: functional, cell-based; conditions: dose 0.5-6 µM
K-562R [6] = experiment: Cytotoxicity against human K562-r cells assessed as reduction in metabolic activity; type: functional, cell-based
K562-r [7] = experiment: Inhibition of STAT5 phosphorylation in human K562-r cells at 4 uM measured after 6 hrs in presence of imatinib by Western blotting based immunoassay; type: cell-based
K-562R [8] = experiment: Effect on ABCB1 protein expression in human K562-r cells at 4 uM incubated for 72 hrs by Western blotting based immunoassay; type: functional, cell-based
K-562R [9] = experiment: Cytotoxicity against human K562-r cells assessed as cell viability at 10 uM incubated for 72 hrs by MTT assay relative to control; type: functional; conditions: read-out: Activity
K562-r [10] = experiment: Inhibition of STAT5 phosphorylation in human K562-r cells at 4 uM measured after 72 hrs by Western blotting based immunoassay; type: cell-based
K562-r [11] = experiment: Effect on STAT5 phosphorylation in human K562-r cells at 4 uM measured after 6 hrs by Western blotting based immunoassay; type: cell-based
[12] = test system: Paclitaxel-resistant IGROV-1 cell; experiment: Inhibition of STAT5 phosphorylation in human Paclitaxel-resistant IGROV-1 cells expressing ABCB1 at 10 uM incubated for 72 hrs by Western blotting based immunoassay
[13] = test system: Paclitaxel-resistant A2780; experiment: Inhibition of STAT5 phosphorylation in human Paclitaxel-resistant A2780 cells expressing ABCB1 at 10 uM incubated for 72 hrs by Western blotting based immunoassay; type: cell-based
[14] = test system: Docetaxel-resistant DU145 cell; experiment: Enhancement of docetaxel-induced anti-metabolic activity against human Docetaxel-resistant DU145 cell assessed as reduction in metabolic activity at 10 uM measured after 72 hrs by MTT assay; type: functional, cell-based
MCF7 [15] = experiment: Effect on STAT5 protein expression in human MCF7 cells at 10 uM incubated for 72 hrs by Western blotting based immunoassay; type: functional, cell-based
A549 [16] = experiment: Inhibition of side population phenotype in human A549 cells expressing ABCC1 at 10 uM incubated for 90 mins by DCV staining based flow cytometric analysis; type: functional, cell-based
[17] = test system: Docetaxel-resistant PC-3 cell; experiment: Inhibition of side population phenotype in human Docetaxel-resistant PC-3 cell expressing ABCB1 at 10 uM incubated for 90 mins by DCV staining based flow cytometric analysis; type: functional
[18] = test system: Paclitaxel-resistant IGROV-1 cell; experiment: Enhancement of paclitaxel-induced anti-metabolic activity in human Paclitaxel-resistant IGROV-1 cells assessed as reduction in metabolic activity upto 300 nM measured after 72 hrs by MTT assay; type: functional, cell-based
A549 [19] = experiment: Inhibition of STAT5 phosphorylation in human A549 cells at 10 uM incubated for 72 hrs by Western blotting based immunoassay; type: cell-based
A2780/Taxol [20] = experiment: Inhibition of side population phenotype in human Paclitaxel-resistant A2780 cells expressing ABCB1 at 10 uM incubated for 90 mins by DCV staining based flow cytometric analysis; type: functional, cell-based
[21] = test system: Docetaxel-resistant PC-3 cell; experiment: Enhancement of docetaxel-induced anti-metabolic activity against human Docetaxel-resistant PC-3 cell assessed as reduction in metabolic activity at 10 uM measured after 72 hrs by MTT assay; type: functional, cell-based
MCF7 [22] = experiment: Inhibition of STAT5 phosphorylation in human MCF7 cells at 10 uM incubated for 72 hrs by Western blotting based immunoassay; type: cell-based
A2780/Taxol [23] = experiment: Sensitization of paclitaxel-induced cytotoxicity against human Paclitaxel-resistant A2780 cells assessed as reduction in metabolic activity at 10 uM measured after 72 hrs by MTT assay; type: functional, cell-based
A549 [24] = experiment: Effect on STAT5 protein expression in human A549 cells at 10 uM incubated for 72 hrs by Western blotting based immunoassay; type: functional, cell-based
A2780/Taxol [25] = experiment: Effect on STAT5 protein expression in human Paclitaxel-resistant A2780 cells expressing ABCB1 at 10 uM incubated for 72 hrs by Western blotting based immunoassay; type: functional, cell-based
MCF7 [26] = experiment: Inhibition of side population phenotype in human MCF7 cells expressing ABCG2 at 10 uM incubated for 90 mins by DCV staining based flow cytometric analysis; type: functional, cell-based
[27] = test system: Paclitaxel-resistant IGROV-1 cell; experiment: Inhibition of side population phenotype in human Paclitaxel-resistant IGROV-1 cells expressing ABCB1 at 10 uM incubated for 90 mins by DCV staining based flow cytometric analysis; type: functional
[28] = test system: Paclitaxel-resistant IGROV-1 cell; experiment: Downregulation of STAT5 protein expression in human Paclitaxel-resistant IGROV-1 cells expressing ABCB1 at 10 uM incubated for 72 hrs by Western blotting based immunoassay; type: functional
[29] = test system: Docetaxel-resistant DU145 cell; experiment: Inhibition of side population phenotype in human Docetaxel-resistant DU145 cell expressing ABCB1 at 10 uM incubated for 90 mins by DCV staining based flow cytometric analysis; type: functional
K562-r [30] = experiment: Effect on STAT5 phosphorylation in human K562-r cells at 4 uM measured after 6 hrs in presence of imatinib by Western blotting based immunoassay; type: cell-based
K562-r [31] = experiment: Effect on STAT5 phosphorylation in human K562-r cells at 4 uM measured after 72 hrs by Western blotting based immunoassay; type: cell-based
K-562R [32] = experiment: Inhibition of side population phenotype in human K562-r cells at 0.1 uM incubated for 90 mins by DCV staining based flow cytometric analysis; type: functional, cell-based

CCCc1nc2ccccc2n1Cc1ccc(C(=O)OC)cc1
viability at 10 µM (K-562R [1]): 34%
inhibition (K-562R [2]): inactive
Activity (K-562R [3]): 44%
Activity (COS-7): Non-toxic

CCCc1nc2ccccc2n1Cc1ccc(-c2ccc(C(=O)O)cc2)cc1
Activity (K-562R [4]): inactive
Activity (COS-7): Non-toxic

CCCc1nc2ccccc2n1Cc1ccc(-c2cccc(C(=O)O)c2)cc1
Activity (K-562R [4]): inactive
Activity (COS-7): Non-toxic

C/C=C/C[C@@H](C)C(=O)[C@H]1C(=O)N[C@@H](C(C)C)C(=O)N(C)CC(=O)N(C)[C@@H](CC(C)C)C(=O)N[C@@H](C(C)C)C(=O)N(C)[C@@H](CC(C)C)C(=O)N[C@@H](C)C(=O)N[C@H](C)C(=O)N(C)[C@@H](CC(C)C)C(=O)N(C)[C@@H](CC(C)C)C(=O)N(C)[C@@H](C(C)C)C(=O)N1C
Activity (K562): inactive
Activity (K-562R [5]): Active
Activity (K-562R [6]): inactive

CCCc1nc2ccccc2n1Cc1ccc(-c2cccc(C(=O)OC)c2)cc1
viability at 10 µM (K-562R [1]): 34%
Activity (COS-7): Non-toxic

CCCc1nc2ccccc2n1Cc1ccc(-c2ccc(C(=O)OC)cc2)cc1
inhibition (K562-r [7]): Active
Activity (K-562R [8]): inactive
inhibition (K-562R [2]): Active
viability at 10 µM (K-562R [9]): ~75%
Activity (COS-7): Non-toxic
inhibition (K562-r [10]): Active
Activity (K562-r [11]): inactive

CCCc1nc2ccccc2n1Cc1ccc(-c2ccc(C(N)=O)cc2)cc1
inhibition (K562-r [7]): Active
inhibition [12]: Active
Activity (K-562R [8]): inactive
inhibition [13]: Active
inhibition (K-562R [2]): Active
Activity [14]: Active
Activity (MCF7 [15]): inactive
inhibition (A549 [16]): inactive
inhibition [17]: Active
Activity [18]: Active
inhibition (A549 [19]): Active
inhibition (A2780/Taxol [20]): Active
Activity [21]: Active
inhibition (MCF7 [22]): Active
Activity (A2780/Taxol [23]): Active
Activity (A549 [24]): inactive
Activity (A2780/Taxol [25]): inactive
Activity (COS-7): Non-toxic
inhibition (K562-r [10]): Active
inhibition (MCF7 [26]): inactive
Activity (K562-r [11]): inactive
inhibition [27]: Active
Activity [28]: Active
inhibition [29]: Active

CCCc1nc2ccccc2n1Cc1ccccc1C(=O)OC
viability at 10 µM (K-562R [1]): 34%
Activity (K-562R [8]): inactive
inhibition (K-562R [2]): inactive
Activity (K-562R [3]): 44%
Activity (K562-r [30]): inactive
Activity (COS-7): Non-toxic
inhibition (K562-r [10]): Active; Lesser Effect Observed
Activity (K562-r [11]): inactive

COc1ccc(CCN(C)CCCC(C#N)(c2ccc(OC)c(OC)c2)C(C)C)cc1OC (configuration not stated)
Activity (K562): inactive
Activity (K-562R [5]): Active
Activity (K-562R [6]): inactive

CCCc1nc2ccccc2n1Cc1ccccc1C(=O)O
Activity (K-562R [4]): inactive
Activity (COS-7): Non-toxic

CCCc1nc2ccccc2n1Cc1cccc(C(=O)O)c1
Activity (K-562R [4]): inactive
Activity (COS-7): Non-toxic

CCCc1nc2ccccc2n1Cc1ccc(-c2cccc(C(N)=O)c2)cc1
inhibition (K562-r [7]): Active
inhibition [12]: Active
Activity (K-562R [8]): inactive
inhibition [13]: Active
inhibition (K-562R [2]): Active
Activity [14]: Active
Activity (MCF7 [15]): inactive
inhibition (A549 [16]): inactive
inhibition [17]: Active
Activity [18]: Active
inhibition (A549 [19]): Active
inhibition (A2780/Taxol [20]): Active
Activity [21]: Active
inhibition (MCF7 [22]): Active
Activity (A2780/Taxol [23]): Active
Activity (A549 [24]): inactive
Activity (A2780/Taxol [25]): inactive
Activity (COS-7): Non-toxic
inhibition (K562-r [10]): Active; Lesser Effect Observed
inhibition (MCF7 [26]): inactive
Activity (K562-r [11]): inactive
inhibition [27]: Active
Activity [28]: Active
inhibition [29]: Active

CCCc1nc2ccccc2n1Cc1cccc(C(=O)OC)c1
viability at 10 µM (K-562R [1]): 34%
inhibition (K-562R [2]): inactive
Activity (K-562R [3]): 44%
Activity (COS-7): Non-toxic

CCCc1nc2ccccc2n1Cc1ccc(-c2ccccc2C(=O)OC)cc1
Activity (K-562R [8]): inactive
inhibition (K-562R [2]): Active
Activity (K562-r [30]): inactive
Activity (COS-7): Non-toxic
inhibition (K562-r [10]): Active; Lesser Effect Observed
Activity (K562-r [11]): inactive

CCCc1nc2ccccc2n1Cc1ccc(-c2ccccc2C(N)=O)cc1
Activity (COS-7): Non-toxic

CCCc1nc2ccccc2n1Cc1cccc(C(N)=O)c1
Activity (K-562R [4]): inactive
Activity (COS-7): Non-toxic

COc1cc2c(cc1OC)CN(CCc1ccc(NC(=O)c3cccc4c(=O)c5cccc(OC)c5[nH]c34)cc1)CC2
Activity (K562): inactive
Activity (K-562R [5]): Active
Activity (K562-r [30]): inactive
Activity (K-562R [6]): inactive
Activity (K562-r [11]): inactive
Activity (K562-r [31]): inactive
inhibition (K-562R [32]): Active

CCCc1nc2ccccc2n1Cc1ccc(C(=O)O)cc1
Activity (K-562R [4]): inactive
Activity (COS-7): Non-toxic

CCCc1nc2ccccc2n1Cc1ccc(C(N)=O)cc1
Activity (K-562R [4]): inactive
Activity (COS-7): Non-toxic

CCCc1nc2ccccc2n1Cc1ccccc1C(N)=O
Activity (K-562R [4]): inactive
viability at 10 µM (K-562R [9]): ~75%
Activity (COS-7): Non-toxic

CCCc1nc2ccccc2n1Cc1ccc(-c2ccccc2C(=O)O)cc1
Activity (K-562R [4]): inactive
Activity (COS-7): Non-toxic
